Where two headings read alike, the source gives them in different places.
Columns and labels:
[1] = system: Hedgehog signaling activity; assay: Gli-luciferase reporter assay in rat hepatic stellate cell line; assay type: cell-based; conditions: for CONCENTRATION REGION restoring Hedgehog signaling activity / PREFERRED CONCENTRATION restoring Hedgehog signaling activity: alcohol-treated hepatic stellate cells; for efficacy order on hedgehog signaling: fish and rat liver cell line
Protocol: The Gli-luciferase reporter assay was performed in duplicated experiments of a rat hepatic stellate cell line, […]. Briefly, […] cells, were grown in DMEM medium supplemented with 10% fetal bovine serum and penicillin and streptomycin (100 U/ml). At 40-50% confluency, cells were transfected with Gli-BS-Firefly luciferase plasmid (60 ng nl^−1) and Renilla luciferase plasmid ([…], pRL-TK, Promega) (concentration ratio 10:1) by using FuGENE 6 Transfection Reagent (Roche Applied Science). […] Two hours later, the medium was added to different drugs (20α-OHC, 22(S)-OHC, 25-OHC and cholesterol). After 16 hrs, the cells were washed three times in ice-cold PBS, and then were assayed by Dual/Luciferase Reporter Assay System (Promega). Activity of the Firefly luciferase reporter was normalized to the activity of a Renilla luciferase internal control for transfection efficiency.

zebra fish embryos [2] = assay: Zebra fish embryo exposure to alcohol, cyclopamine or AY-9944: survival and phenotype; conditions: for developmental malformations of treated embryos: transient treatment during gastrulation, alcohol 2%, cyclopamine 10.0 μM, AY-9944 7.5 μM
[3] = alcohol exposure during gastrulation, dose-related
Protocol: Cholesterol content was then measured by the Arnplex Red Cholesterol Assay Kit (Invitrogen).

zebra fish embryos [4] = assay: Cholesterol microinjection rescue of alcohol-exposed embryos; assay type: in vivo; conditions: 48 hpf
Protocol: (§1) Embryos were microinjected at 1-2 cell stage with 0.2 nl of 5 μg μl^−1 ([…]) cholesterol (BioVision Inc.) with or without the two plasmids for the Gli-luciferase reporter assay. […] At 48 hpf embryos were analyzed.

zebra fish embryos [5] = conditions: zebrafish, in vivo
[6] = alcohol-exposed embryos
Excerpt: Upon esterified reaction, then the cholesterol ester can be transported from the embryonic yolk to the body. […] The fluorescent molecule, Filipin can selectively bind to free cholesterol, but not cholesterol ester; in other hand, the dye of oil red O identifies neutral lipids molecules such as cholesterol ester, but not polarized free cholesterol. First, applicant quantitatively analyzed the free cholesterol by whole mount in situ filipin staining.

[7] = system: Hh-responsive Gli-BS luciferase reporter; assay: Gli-luciferase reporter assay in embryos; assay type: in vivo, zebra fish
Protocol: The Gli-luciferase reporter assay was performed in replicate experiments of pooled embryos (n=15). Briefly, zebra fish embryos at the 1-2 cell stage were microinjected with 0.5 nl of Gli-BS-Firefly luciferase plasmid (60 ng nl^−1) and Renilla luciferase plasmid (60 ng nl^−1, pRL-TK, Promega). Reporter activity was determined by using the Dual-Luciferase Reporter Assay System (Promega). Activity of the Firefly luciferase reporter was normalized to the activity of a Renilla luciferase internal control for transfection efficiency.
as §1

zebra fish embryos [8] = conditions: 2.0% alcohol for 6 hours from 4.3 hpf, no supplement; 72 hpf
[9] = chronic alcohol feeding versus both control groups, p<0.001
Shh [10] = system: Shh
Shh [11] = conditions: 0.6% alcohol (w/v, 109 mM) for 30 minutes
Shh [12] = system: Shh; remark: listed apart in the source
Caveolin-1/Shh complex = conditions: alcohol 0.3, 0.5, 0.6, 0.8% w/v for 2 hours
Excerpt: First, as described in FIG. 6, cellular proteins isolated by non-ionic detergent resistant cellular extraction were fractionalized by density gradient ultracentrifugation. […] Fractions 7 through 9 from the density gradient were pooled and used in the immunoprecipitation assay.

Shh secretion = conditions: 3 hours, HSC 8B cells, Elisa
Protocol: Applicant analyzed proteins collected from the HSC 8B culture medium for Shh ligand content using two independent methods: Western blot analysis and Elisa assay. […] The cultures were incubated for an additional 3 hours, and culture medium was then harvested and concentrated for protein isolation.

[13] = system: Shh target genes Ptc, Gli1, Nkx2.2; conditions: real-time quantitative PCR
Protocol: Total RNA was extracted from embryos (n=10) with RNeasy kits (Qiagen). RT-PCR were performed using primers (information listed in following table) as previously described.^52

Shh [14] = conditions: alcohol-exposed embryos, Western blot
Excerpt: Total cellular protein was isolated as previously described^51 and cell membrane proteins were isolated using the Mem-PER(r) Eukaryotic Membrane Protein Extraction Reagent Kit (Pierce Biotechnology). Proteins (4o μg) in Laemmli buffer were then separated by 12% Tris-HCl SDS-polyacrylamide gel electrophoresis and transferred to a PVDF membrane. Membranes were blocked, washed, and exposed to primary antibodies (Santa Cruz Biotechnology) against Shh (N-19, Catalog number: sc-1194; dilution: 1:2.500) and β-actin (1:1.000). Signals were detected by Anti-goat HRP antibody (1:10.000, Amersham).

2,6,10,15,19,23-Hexamethyl-2,6,20,24,28,22-Tetracosahexaene [Squalene]
CONCENTRATION REGION restoring Hedgehog signaling activity [1]: 0.1 to 100 µM
PREFERRED CONCENTRATION restoring Hedgehog signaling activity [1]: 1 to 10 µM
efficacy order on hedgehog signaling [1]: efficacy order is 25-OHC, 22(S)-OHC, cholesterol, 20α-OHC and followed with squalene

CC(C)CCC[C@](C)(O)[C@H]1CC[C@H]2[C@@H]3CC=C4C[C@@H](O)CC[C@]4(C)[C@H]3CC[C@@]21C [20α-Hydroxycholesterol, 20-hydroxycholesterol]
CONCENTRATION REGION restoring Hedgehog signaling activity [1]: 0.1 to 100 µM
PREFERRED CONCENTRATION restoring Hedgehog signaling activity [1]: 1 to 5 µM
efficacy order on hedgehog signaling [1]: efficacy order is 25-OHC, 22(S)-OHC, cholesterol, 20α-OHC and followed with squalene

CC(C)CCC(O)[C@@H](C)[C@H]1CC[C@H]2[C@@H]3CC=C4C[C@@H](O)CC[C@]4(C)[C@H]3CC[C@]12C (stereo partly drawn) [22(S)-Hydroxycholesterol, 5-cholestene-3b,22-diol]
CONCENTRATION REGION restoring Hedgehog signaling activity [1]: 0.1 to 100 µM
PREFERRED CONCENTRATION restoring Hedgehog signaling activity [1]: 1 to 5 µM
efficacy order on hedgehog signaling [1]: efficacy order is 25-OHC, 22(S)-OHC, cholesterol, 20α-OHC and followed with squalene

C[C@H](CCCC(C)(C)O)[C@H]1CC[C@H]2[C@@H]3CC=C4C[C@@H](O)CC[C@]4(C)[C@H]3CC[C@]12C [25-hydroxycholesterol, 5-cholestene-3b,25-diol]
CONCENTRATION REGION restoring Hedgehog signaling activity [1]: 0.1 to 100 µM
PREFERRED CONCENTRATION restoring Hedgehog signaling activity [1]: 5 to 15 µM
efficacy order on hedgehog signaling [1]: efficacy order is 25-OHC, 22(S)-OHC, cholesterol, 20α-OHC and followed with squalene

Cl.Cl.Clc1ccccc1CNC[C@H]1CC[C@H](CNCc2ccccc2Cl)CC1 [AY-9944, trans-1,4 bis-(2-dichlorobenzylaminomethyl) cyclohexane dihydrochloride, reference compound]
developmental malformations of treated embryos (zebra fish embryos [2]): HPE and partial cyclopia, as well as underdevelopment of the craniofacial bones and muscles, and failure of the heart tube to loop

CCO [Alcohol, ethanol]
Hedgehog signaling (Gli binding site derived luciferase activities) in hepatic stellate cells ([1]; alcohol 0.25, 0.5, 0.75 and 1.0% v/v versus no alcohol (A0)): decrease Hedgehog signaling activates
total cholesterol content of the embryos [3]: decrease in the total cholesterol content
embryos with FASD-like phenotypes (zebra fish embryos [4]; alcohol-exposed, unsupplemented embryos): 83.3%
embryos alive at 48 hpf (zebra fish embryos [5]): 10%
embryos alive with minimal abnormalities at 48 hpf (zebra fish embryos [5]): 18%
embryos alive with normal phenotypes at 48 hpf (zebra fish embryos [5]): 72.3%
living embryos phenotypically normal at 48 hpf (zebra fish embryos [5]): 2.6%
cholesterol ester (oil red O staining) in embryo yolk and body [6]: dramatic decrease of cholesterol ester in the embryonic yolk, with little or no change in its concentration in the embryonic body
free cholesterol (filipin staining) in embryo body and yolk [6]: large decrease in cholesterol concentration in the embryonic body, but not in the embryonic yolk
Gli-BS luciferase activity in embryos ([7]; following alcohol exposure (0.25-2.0%)): decreased in a dose-related fashion
survival rate at 48 hpf (zebra fish embryos [2]; 0.25% alcohol for 6 h, late blastula-gastrula stage (second window)): over 90%
embryos survived to 48 hpf (zebra fish embryos [2]; 0.25% alcohol, first exposure window (1 to 2 cell stages to 3 hpf)): < 40%
embryos that failed to survive to 48 hpf (zebra fish embryos [2]; 0.25% alcohol, second exposure window): < 10%
embryos survived through 48 hpf with abnormal morphology (zebra fish embryos [2]; 2% alcohol, second exposure window): 84%
embryos for which exposure was lethal (zebra fish embryos [2]; 2% alcohol, second exposure window, 48 hpf): 13%
embryos developed relatively normal on gross morphology (zebra fish embryos [8]): 15%
ratio of cholesterol ester to total cholesterol in plasma [9]: significantly decreased
co-localization of Shh and lipid raft (Shh [10]; alcohol 0.25% v/v for 5 minutes): disrupted
Shh localization (Shh [10]; alcohol 1% for one hour): almost all of the Shh protein was accumulated inside of the liver stellate cells
density gradient distribution of Shh (Shh [11]): restricted to fractions 12 through 17
Shh distribution pattern relative to ER marker (Shh [12]; 0.6% (w/v) alcohol for one hour): diffuse, homogeneous distribution pattern
punctate co-localized Caveolin-1/Shh particles (Shh [12]; alcohol 0.4% and 0.8% (w/v) for thirty minutes): dramatically decreased in an alcohol dose dependent manner
amount of Caveolin-1 in the lipid raft fractions (Caveolin-1/Shh complex): did not affect the amount of Caveolin-1
amount of Shh in Caveolin-1 containing lipid raft fractions (fractions 7-9) (Caveolin-1/Shh complex): decreased in an alcohol dose-dependent manner
decrease in Shh secretion (Shh secretion; 0.3% (55 mM) alcohol): 1.2 fold
decrease in Shh secretion (Shh secretion; 0.6% (109 mM) alcohol): 4.2 fold
decrease in Shh secretion (Shh secretion; 0.8% (136 mM) alcohol): 5.5 fold
change in expression of Ptc or Gli1 ([13]; 0.25% alcohol): no significant change
decrease of Nkx2.2 expression ([13]; 0.25% alcohol): about 50%
Shh transcription ([13]; alcohol concentrations higher than 1.0%): decreased
Shh in cellular membrane protein fraction (Shh [14]): progressive loss of Shh from the cellular membrane protein fraction

CC(C)CCC[C@@H](C)[C@H]1CC[C@H]2[C@@H]3CC=C4C[C@@H](O)CC[C@]4(C)[C@H]3CC[C@]12C [Cholesterol, 10,13-dimethyl-17-(6-methylheptan-2-yl)-2,3,4,7,8,9,11,12,14,15,16,17-dodecahydro-1H-cyclopenta[a]phenanthren-3-ol]
CONCENTRATION REGION restoring Hedgehog signaling activity [1]: 1 to 50 µM
PREFERRED CONCENTRATION restoring Hedgehog signaling activity [1]: 1 to 20 µM
efficacy order on hedgehog signaling [1]: efficacy order is 25-OHC, 22(S)-OHC, cholesterol, 20α-OHC and followed with squalene
embryos that appeared grossly normal (zebra fish embryos [4]; cholesterol-supplemented (10 pg), alcohol-exposed embryos): 94.8%
Gli-BS reporter activity in cholesterol-supplemented, alcohol-exposed embryos ([7]; cholesterol 10 pg microinjected at 1-2 cell stage, various alcohol concentrations during gastrulation): preserved at all doses of alcohol exposure

CC1=C2C[C@H]3[C@@H](CC=C4C[C@@H](O)CC[C@@]43C)[C@@H]2CC[C@]12O[C@@H]1C[C@H](C)CN[C@H]1[C@H]2C [cyclopamine, 11-deoxojervine, reference compound]
developmental malformations of treated embryos (zebra fish embryos [2]): HPE and partial cyclopia, as well as underdevelopment of the craniofacial bones and muscles, and failure of the heart tube to loop
